Patent publication US10653672B2, “Myogenesis promotor, muscle atrophy inhibitor, medical composition and TAZ activator” (National University Corporation Tokyo Medical and Dental …, priority 2014, dated 2020)

System: C2C12 cells
Assay: Evaluation of myogenesis of C2C12 cells by fusion index
Type: cell-based, mouse
Conditions: differentiation condition 72 hours, DMSO as 1, average of three
Protocol: (1) C2C12 cells were grown to confluence under growth condition, and then in differentiation condition for 72 hours, in a culture medium added with DMSO, IBS008738 (exemplary compound 1) or exemplary compounds 2 to 44, at a concentration of 1 μM, 3 μM or 10 μM, respectively. Thereafter, the degree of myogenesis was evaluated by a fusion index (a value obtained by dividing the number of nuclei detected in multinucleated myosin heavy chain (MHC)-positive cells by the total number of the nuclei). Specifically, exemplary compounds were divided into five groups, and DMSO and IBS008738 were evaluated in each group as controls. The evaluation was conducted three times, and the average value and the standard deviation of the fusion index was relativized with the measured value of DMSO as 1.
C2C12 cells were passaged in a growth medium (DMEM containing 10% FBS) and differentiated in a differentiation medium (DMEM containing 2% horse serum (Invitrogen)).

Cc1ccc(-n2cnc(N)c2C(=O)c2ccccc2)cc1 [exemplary compound 2]
relative fusion index (FI) (Group 1, 1 μM): 1.62
relative fusion index (FI) (Group 1, 3 μM): 2.26
relative fusion index (FI) (Group 1, 10 μM): 2.41

Cc1ccc(-n2cnc(/N=C/N3CCCCC3)c2C(=O)c2ccccc2)cc1 [exemplary compound 4]
relative fusion index (FI) (Group 1, 1 μM): 1.02
relative fusion index (FI) (Group 1, 3 μM): 1.54
relative fusion index (FI) (Group 1, 10 μM): 1.51

CC(=O)Nc1ncn(-c2ccc(C)cc2)c1C(=O)c1ccccc1 [exemplary compound 5]
relative fusion index (FI) (Group 1, 1 μM): 0.85
relative fusion index (FI) (Group 1, 3 μM): 1.50
relative fusion index (FI) (Group 1, 10 μM): 1.57

Cc1ccc(-n2cnc(/N=C/c3ccccc3)c2C(=O)c2ccccc2)cc1 [exemplary compound 6]
relative fusion index (FI) (Group 1, 1 μM): 0.96
relative fusion index (FI) (Group 1, 3 μM): 1.78
relative fusion index (FI) (Group 1, 10 μM): 1.42

CCOC(=O)c1c(N)ncn1-c1ccc(C)cc1 [exemplary compound 7]
relative fusion index (FI) (Group 1, 1 μM): 1.09
relative fusion index (FI) (Group 1, 3 μM): 1.55
relative fusion index (FI) (Group 1, 10 μM): 1.44

CCOC(=O)c1c(/N=C/N(C)C)ncn1-c1ccc(C)cc1 [exemplary compound 8]
relative fusion index (FI) (Group 1, 1 μM): 0.93
relative fusion index (FI) (Group 1, 3 μM): 1.53
relative fusion index (FI) (Group 1, 10 μM): 1.05

CCOC(=O)c1c(/N=C/N2CCOCC2)ncn1-c1ccc(C)cc1 [exemplary compound 10]
relative fusion index (FI) (Group 1, 1 μM): 0.80
relative fusion index (FI) (Group 1, 3 μM): 1.31
relative fusion index (FI) (Group 1, 10 μM): 0.85

CNc1ncn(-c2ccc(C)cc2)c1C(=O)c1ccccc1 [exemplary compound 12]
relative fusion index (FI) (Group 2, 1 μM): 1.24
relative fusion index (FI) (Group 2, 3 μM): 1.43
relative fusion index (FI) (Group 2, 10 μM): 1.36

COc1ccc(-n2cnc(N)c2C(=O)c2ccccc2)cc1 [exemplary compound 13]
relative fusion index (FI) (Group 2, 1 μM): 1.22
relative fusion index (FI) (Group 2, 3 μM): 1.32
relative fusion index (FI) (Group 2, 10 μM): 1.53

COc1ccc(-n2cnc(/N=C/N(C)C)c2C(=O)c2ccccc2)cc1 [exemplary compound 14]
relative fusion index (FI) (Group 2, 1 μM): 1.18
relative fusion index (FI) (Group 2, 3 μM): 1.63
relative fusion index (FI) (Group 2, 10 μM): 1.72

COc1ccc(-n2cnc(/N=C/N3CCOCC3)c2C(=O)c2ccccc2)cc1 [exemplary compound 15]
relative fusion index (FI) (Group 2, 1 μM): 1.20
relative fusion index (FI) (Group 2, 3 μM): 1.58
relative fusion index (FI) (Group 2, 10 μM): 1.58

Cc1ccc(-n2c(C)nc(N)c2C(=O)c2ccccc2)cc1 [exemplary compound 16]
relative fusion index (FI) (Group 2, 1 μM): 1.06
relative fusion index (FI) (Group 2, 3 μM): 1.18
relative fusion index (FI) (Group 2, 10 μM): 1.60

Nc1ncn(-c2ccc(Br)cc2)c1C(=O)c1ccccc1 [exemplary compound 17]
relative fusion index (FI) (Group 2, 1 μM): 1.51
relative fusion index (FI) (Group 2, 3 μM): 2.14
relative fusion index (FI) (Group 2, 10 μM): 2.07

Cc1ccc(-n2cnc(N(C)C)c2C(=O)c2ccccc2)cc1 [exemplary compound 18]
relative fusion index (FI) (Group 3, 1 μM): 1.34
relative fusion index (FI) (Group 3, 3 μM): 1.52
relative fusion index (FI) (Group 3, 10 μM): 1.85

CN(C)/C=N/c1ncn(-c2ccc(Br)cc2)c1C(=O)c1ccccc1 [exemplary compound 19]
relative fusion index (FI) (Group 3, 1 μM): 1.25
relative fusion index (FI) (Group 3, 3 μM): 1.57
relative fusion index (FI) (Group 3, 10 μM): 1.63

O=C(c1ccccc1)c1c(/N=C/N2CCOCC2)ncn1-c1ccc(Br)cc1 [exemplary compound 20]
relative fusion index (FI) (Group 3, 1 μM): 1.26
relative fusion index (FI) (Group 3, 3 μM): 1.41
relative fusion index (FI) (Group 3, 10 μM): 1.60

CC(=O)c1c(/N=C/N(C)C)ncn1-c1ccc(C)cc1 [exemplary compound 25]
relative fusion index (FI) (Group 3, 1 μM): 0.96
relative fusion index (FI) (Group 3, 3 μM): 1.22
relative fusion index (FI) (Group 3, 10 μM): 1.44

Cc1ccc(-n2cnc(N)c2C#N)cc1 [exemplary compound 26]
relative fusion index (FI) (Group 3, 1 μM): 1.01
relative fusion index (FI) (Group 3, 3 μM): 1.09
relative fusion index (FI) (Group 3, 10 μM): 1.44

CC(C)(C)OC(=O)NCCc1ccc(-n2cnc(N)c2C(=O)c2ccccc2)cc1 [exemplary compound 27]
relative fusion index (FI) (Group 4, 1 μM): 0.97
relative fusion index (FI) (Group 4, 3 μM): 1.67
relative fusion index (FI) (Group 4, 10 μM): 1.98

NCCc1ccc(-n2cnc(N)c2C(=O)c2ccccc2)cc1 [exemplary compound 28]
relative fusion index (FI) (Group 4, 1 μM): 1.21
relative fusion index (FI) (Group 4, 3 μM): 1.42
relative fusion index (FI) (Group 4, 10 μM): 1.64

N#CCc1ccc(-n2cnc(N)c2C(=O)c2ccccc2)cc1 [exemplary compound 29]
relative fusion index (FI) (Group 4, 1 μM): 1.25
relative fusion index (FI) (Group 4, 3 μM): 1.49
relative fusion index (FI) (Group 4, 10 μM): 1.61

COc1ccc(C(=O)c2c(N)ncn2-c2ccc(C)cc2)cc1 [exemplary compound 30]
relative fusion index (FI) (Group 4, 1 μM): 1.27
relative fusion index (FI) (Group 4, 3 μM): 1.52
relative fusion index (FI) (Group 4, 10 μM): 1.54

Cc1ccc(-n2cnc(N)c2C(=O)c2cccc(Cl)c2)cc1 [exemplary compound 31]
relative fusion index (FI) (Group 4, 1 μM): 1.12
relative fusion index (FI) (Group 4, 3 μM): 1.15
relative fusion index (FI) (Group 4, 10 μM): 1.40

Cc1ccc(-n2cnc(N)c2C(=O)c2ccc(Cl)cc2)cc1 [exemplary compound 32]
relative fusion index (FI) (Group 4, 1 μM): 1.16
relative fusion index (FI) (Group 4, 3 μM): 1.47
relative fusion index (FI) (Group 4, 10 μM): 1.60

Cc1ccc(-n2cnc(N)c2C(=O)c2ccc([N+](=O)[O-])cc2)cc1 [exemplary compound 33]
relative fusion index (FI) (Group 4, 1 μM): 0.91
relative fusion index (FI) (Group 4, 3 μM): 1.20
relative fusion index (FI) (Group 4, 10 μM): 1.23

Cc1ccc(-n2cnc(N)c2C(=O)c2ccc(F)cc2)cc1 [exemplary compound 34]
relative fusion index (FI) (Group 4, 1 μM): 1.38
relative fusion index (FI) (Group 4, 3 μM): 1.33
relative fusion index (FI) (Group 4, 10 μM): 1.49

Nc1ncn(-c2ccc(Cl)cc2Cl)c1C(=O)c1ccccc1 [exemplary compound 35]
relative fusion index (FI) (Group 4, 1 μM): 1.27
relative fusion index (FI) (Group 4, 3 μM): 1.60
relative fusion index (FI) (Group 4, 10 μM): 1.55

Cc1ccc(-n2cnc(N)c2C(=O)c2ccc(Br)cc2)cc1 [exemplary compound 36]
relative fusion index (FI) (Group 4, 1 μM): 1.12
relative fusion index (FI) (Group 4, 3 μM): 1.57
relative fusion index (FI) (Group 4, 10 μM): 1.59

Cc1ccc(-n2cnc(N)c2C(=O)C23CC4CC(CC(C4)C2)C3)cc1 [exemplary compound 37]
relative fusion index (FI) (Group 4, 1 μM): 1.39
relative fusion index (FI) (Group 4, 3 μM): 1.47
relative fusion index (FI) (Group 4, 10 μM): 1.77

Nc1ncn(-c2ccccn2)c1C(=O)c1ccccc1 [exemplary compound 38]
relative fusion index (FI) (Group 5, 1 μM): 1.08
relative fusion index (FI) (Group 5, 3 μM): 1.12
relative fusion index (FI) (Group 5, 10 μM): 1.15

N#Cc1ccc(-n2cnc(N)c2C(=O)c2ccccc2)cc1 [exemplary compound 39]
relative fusion index (FI) (Group 5, 1 μM): 1.04
relative fusion index (FI) (Group 5, 3 μM): 1.10
relative fusion index (FI) (Group 5, 10 μM): 1.09

CCOC(=O)c1c(N)ncn1-c1ccccc1C [exemplary compound 40]
relative fusion index (FI) (Group 5, 1 μM): 1.12
relative fusion index (FI) (Group 5, 3 μM): 1.15
relative fusion index (FI) (Group 5, 10 μM): 1.10

CC(=O)c1c(N)ncn1-c1ccccc1C [exemplary compound 41]
relative fusion index (FI) (Group 5, 1 μM): 1.14
relative fusion index (FI) (Group 5, 3 μM): 1.06
relative fusion index (FI) (Group 5, 10 μM): 1.11

Cc1ccccc1-n1cnc(N)c1C(=O)C12CC3CC(CC(C3)C1)C2 [exemplary compound 42]
relative fusion index (FI) (Group 5, 1 μM): 1.08
relative fusion index (FI) (Group 5, 3 μM): 1.03
relative fusion index (FI) (Group 5, 10 μM): 1.10

Cc1ccc(-n2cnc(N)c2C(=O)c2ccccc2)c(C)c1 [exemplary compound 43]
relative fusion index (FI) (Group 5, 1 μM): 1.07
relative fusion index (FI) (Group 5, 3 μM): 1.11
relative fusion index (FI) (Group 5, 10 μM): 1.12

Cc1cc(C)c(-n2cnc(N)c2C(=O)c2ccccc2)c(C)c1 [exemplary compound 44]
relative fusion index (FI) (Group 5, 1 μM): 1.11
relative fusion index (FI) (Group 5, 3 μM): 1.08
relative fusion index (FI) (Group 5, 10 μM): 1.07
